Measurements published in patent publication US5302604A, “Cholesterol lowering compounds produced by directed biosynthesis” (Merck & Co., Inc., priority 1992, dated 1994).

Molecular target: T1, Squalene Synthetase (Rattus norvegicus, UniProt Q02769)
T1 construct: from tissue; host or cells: liver microsomes (100,000×g pellet) of male Charles River CD rats fed 0.1% lovastatin for 4 days
T1 sequence (Q02769 1-416): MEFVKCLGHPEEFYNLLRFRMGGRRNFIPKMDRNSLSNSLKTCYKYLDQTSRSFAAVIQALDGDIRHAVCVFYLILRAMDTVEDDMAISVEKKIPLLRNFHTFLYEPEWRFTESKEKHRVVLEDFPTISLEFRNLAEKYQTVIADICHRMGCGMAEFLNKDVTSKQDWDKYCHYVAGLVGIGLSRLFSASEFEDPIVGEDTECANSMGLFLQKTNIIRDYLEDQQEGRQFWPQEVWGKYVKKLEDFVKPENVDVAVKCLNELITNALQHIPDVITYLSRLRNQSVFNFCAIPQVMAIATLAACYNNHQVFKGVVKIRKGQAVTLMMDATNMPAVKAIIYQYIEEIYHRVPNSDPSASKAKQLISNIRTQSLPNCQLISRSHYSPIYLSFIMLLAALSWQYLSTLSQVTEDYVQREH
Assay: Squalene synthetase assay (in vitro inhibition, conversion of [4-^14 C]farnesyl-pyrophosphate)
Format: biochemical
Conditions: rat liver microsomes, 30° C., 20 minutes
Protocol: The intrinsic squalene synthetase inhibitory activity of representative compounds of this invention was measured by the standard in vitro protocol described below:
PREPARATION OF RAT LIVER MICROSOMES
Male, Charles River CD rats (120 to 150 g) were fed a diet containing 0.1% lovastatin for 4 days. The livers from these rats were homogenized in 5 volumes (mL/g) of ice cold 50 mM HEPES (4-(2-hydroxyethyl)-1-piperazine-ethanesulfonic acid), 5 mM EDTA (ethylenediaminetetraacetic acid) pH 7.5 with a Potter-Elvehjem type tissue grinder. The homogenate was centrifuged twice at 20,000×g for 15 min. at 4° C., discarding the pellet each time. The supernatant was then centrifuged at 100,000×g for 1 hr at 4° C. The resulting microsomal pellet was resuspended in a volume of the above homogenizing buffer equal to one-fifth the volume of the original homogenate. This microsomal preparation has a protein concentration of about 7 mg/mL. The microsomal suspensions were stored in aliquots at -70° C. Squalene synthetase activity in these aliquots is stable for a least several months.
Partial Purification of Prenyl Transferase
Prenyl transferase was purified to use in the enzymatic synthesis of radiolabelled farnesyl pyrophosphate. […]

`C=C(CCC12OC(C(=O)O)C(O)(C(=O)O)C(C(=O)O)(O1)C(OC(=O)/C=C/C(C)CC(C)CC)C2O)C(OC(C)=O)C(C)Cc1ccsc1` (stereo not shown) was tested, and the IC50 was 0.201 nM.
